The source of these data is paper PMC6192554, “In vitro toxicity and efficacy of verdinexor, an exportin 1 inhibitor, on opportunistic viruses affecting immunocompromised individuals” (PLoS ONE, 2018).

Molecules are shown by their SMILES.

One data set in a line: Serum protein binding. Type of data set: in vitro ADME. The note with it: human, humans. The protocol:
(§1) Serum concentrations with Verdinexor have been previously established in in vivo models of influenza in both mice and ferrets. In mice receiving 10mg/kg and ferrets receiving 5mg/kg, max plasma concentration of verdinexor was approximately 1200 (ng/mL) however, the half life in mice was extended (6 hours) as compared to that of ferrets (2 hours). Serum protein binding of verdinexor in humans is 98.4%. […] A Phase 1, Randomized, Double-Blind, Placebo-Controlled, Sequential, Dose-Escalating Trial to Evaluate the Safety and Tolerability of Oral Verdinexor (KPT-335) in Healthy Adult Subjects was conducted in Nucleus Network, Melbourne, Victoria, Australia [ClinicalTrials.gov: NCT02431364]. No study results are currently posted for this study. Furthermore, a clinical study was submitted to the USA FDA on IND#122718. This phase 1a, Randomized, Double-Blind, Placebo-Controlled, Sequential, Dose-Escalating Trial of Single and Multi-Dose oral verdinexor (KPT-335) to Evaluate the Safety and Tolerability in Healthy Elderly Volunteers is yet to be initiated and recruit subjects.

In data set [1] the test system is 104 principal receptor/ligand interactions. As to the kind of experiment: Off-target panel of in vitro protein binding assays. The note with it: 10 μM; 104 receptor/ligand interactions. The protocol:
as §1

The subject of another data set is HPV-18. As to the kind of experiment: HPV-18 DNA amplification in organotypic raft culture of PHKs (qPCR). Type of data set: cell-based, human papillomavirus. The protocol:
HPV-11 and -18 were tested in HEK293 cells and primary human keratinocytes (PHK), respectively. PHKs were isolated from neonatal foreskins following circumcision according to IRB-approved protocols at UAB. They were grown in keratinocyte serum-free medium (Life Technologies) with mitomycin C-treated J2 feeder cells (Swiss 3T3 J2 fibroblasts; Elaine Fuchs, Rockefeller University). HEK 293 cells were maintained under standard conditions.
For secondary assays, the amplification of HPV-18 DNA was determined in an organotypic squamous epithelial raft culture of PHKs. Whole genomic HPV-18 plasmids were generated in plasmid-transfected PHKs and developed into organotypic cultures as described. Based on the results of a 3-day toxicity assay, concentrations of test compound were added to a subset of raft cultures from day 6 through day 13 when the cultures were harvested. Similarly treated normal PHK raft cultures were also prepared to assess toxicity of uninfected tissue. One set of cultures were fixed in 10% buffered formalin, paraffin embedded and sectioned for in situ assay. Sections were stained with hematoxylin and eosin. Total DNA harvest from unfixed raft cultures was used to determine the HPV-18 copy number/per cell by qPCR. Inhibition was expressed as % of viral DNA copies relative to the untreated cultures.
Background: Quantitative PCR measures a nucleic acid by following its amplification.

A short description of data set [2]: Cytotoxicity in Akata cells (CellTiter-Glo), concurrent with EBV assays. The class given is cell-based. The note with it: human. The protocol:
Cytotoxicity assays: Concurrent assessment of cytotoxicity was also performed for each study in the same cell line and with the same compound exposure. For KSHV, cell viability was assessed with the CellTiter-Glo Luminescent Cell Viability Assay (Promega) using manufacturer’s protocol. Luminescence was quantified on a luminometer. Standard methods were used to calculate the 50% cytotoxic level (CC50). Cytotoxicity assay was performed in a manner analogous to KSHV (see above).
A general note: In ATP-based viability assays light output follows the ATP content of the culture.

In data set [3] the test system is Guinea pig CMV strain 22122. As to the kind of experiment: GPCMV plaque reduction assay in GPL cells. The class given is cell-based, guinea pig cytomegalovirus. The settings on record: in Cavia porcellus, primary screen. The protocol: Murine CMV strain Smith was obtained from Earl Kern and assayed in mouse embryonic fibroblast cells (MEF) immortalized by telomerization. Guinea pig CMV strain 22122 was obtained from the ATCC and assayed in primary guinea pig lung cells (GPL). Both MEF and GPL cells were prepared at the UAB tissue procurement facility with IRB approval as previously described.
Plaque reduction assays for MCMV, GPCMV were performed on monolayers of GPL (GPCMV) or MEF (MCMV) cells prepared in six-well plates and incubated at 37°C for 2d to allow the cells to reach confluency. Media was then aspirated from the wells and 0.2ml of virus was added to each of three wells to yield 20–30 plaques in each well. The virus was allowed to adsorb to the cells for 1h and the plates were agitated every 15min. Compounds were diluted in assay media consisting of MEM with Earl’s salts supplemented with 2% FBS, L-glutamine, penicillin, and gentamycin. Solutions ranging from 0.0032–10μM (primary) or 0.032–100μM (secondary) were added to triplicate wells and the plates were incubated for various times, depending on the virus used. For MCMV and GPCMV, the cell monolayer was stained with 1% neutral red solution for 4h at which time the stain was aspirated and cells were washed with PBS. […]
A general note: In a plaque reduction assay, fewer plaques than in the control indicate reduced infectivity or spread.

The subject of data set [4] is Epstein-Barr virus (EBV) Akata strain. The data set can be described thus: EBV primary assay, DNA hybridization in induced Akata cells. Type of data set: cell-based. The protocol:
EBV Akata strain was assayed in Akata cells (John Sixbey, LSU) latently infected with EBV (and therefore oncogenic). Cells were maintained in RPMI 1640, (Mediatech) with 10% FBS (Hyclone), L-glutamine, penicillin and gentamicin.
For Primary assay, Akata cells latently infected with EBV were induced to undergo lytic infection by addition of 50μg/ml of a goat anti-human IgG [16] and a dose-range of verdinexor (0.032 to 100 μM) was added for 72hr. Denaturation buffer was added and an aliquot aspirated through an Immobilon nylon membrane (Millipore, Bedford, MA). Dried membranes were equilibrated in DIG Easy Hyb solution (Roche Diagnostics, Indianapolis, IN) at 56°C. Specific DIG-labeled probes for EBV (S1 Table). (Roche Diagnostics). Membranes with EBV DNA were hybridized overnight followed by washes in 0.2× SSC and 0.1× SSC both with 0.1% SDS. Detection of specifically bound DIG probe was performed with anti-DIG antibody (Roche Diagnostics). An image of the photographic film was captured and quantified with QuantityOne software (Bio-Rad), and the EC50 were interpolated.

Data set [5] deals with BK polyomavirus (BKPyV) Gardner strain. The data set can be described thus: BKPyV qPCR genome copy assay in HFF cells. Type of data set: cell-based. The note with it: Betapolyomavirus hominis. The protocol:
John Cunningham polyomavirus (JCPyV) strains MAD-1 and MAD-4 and BK polyomavirus (BKPyV) Gardner strain were obtained from ATCC. COS-7 cells were obtained from ATCC and maintained according to ATCC-supplied protocols.
Primary assays for BKPyV were performed in 384-well plates containing monolayers of HFF cells. Compound dilutions ranging from 0.0032–100μM were prepared in plates containing cells which were subsequently infected at an MOI of 0.001. After a 7d incubation, total DNA was prepared using Extracta and genome copy number was quantified by qPCR using the primers and probe listed in S1 Table [18]. Plasmid pMP526 served as the DNA standard for quantification purposes. Compounds were confirmed in a similar assay in 96-well plates according to established laboratory protocols with the compounds added 1h […] to identify compounds that inhibit early stages of replication including adsorption and entry. Genome copy number was determined by methods described above.

Another data set relates to HIV. Also on record: method as in PMID 3025240. The settings on record: PBMCs from healthy donors; read-out: EC50, anti-HIV activity; cited from earlier work.

For `O=C(C=Cn1cnc(-c2cc(C(F)(F)F)cc(C(F)(F)F)c2)n1)NNc1ccccn1` (stereo in doubt) [verdinexor, (E)-3-[3-[3,5-bis(trifluoromethyl)phenyl]-1,2,4-triazol-1-yl]-N'-pyridin-2-ylprop-2-enehydrazide], in the data set “Serum protein binding”, the fraction unbound (as a rule, the share of the substance not bound to proteins or other matrix) was 0.016. In data set [1], the “effect on off-target panel” value is “none of the enzymes, receptors, transporters, kinases, or cysteine proteases were significantly affected”. Besides, the EC50 – broadly, the concentration that produces a half-maximal response – was 8300 nM with HPV-18 (Human papillomavirus); 190 nM in data set [3]; > 480 nM in data set [4] (human gammaherpesvirus 4, Akata); 7620 nM in data set [5] (primary screen); 2290 nM in data set [5] (secondary screen, compound added 1h post-infection); 116 ± 54 nM with HIV. For the same compound, the “efficacy against HPV-18” value in the data set on HPV-18 (secondary screen, PHKs) is recorded as “did not show efficacy”. Also, the CC50 (as a rule, the concentration giving 50% cytotoxicity) in data set [2] (EBV assays) was < 680 nM; in data set [2] (EBV primary screen), 680 nM; in data set [2] (EBV secondary screen), 340 nM. In data set [4] (EBV, primary screen, DNA hybridization), the “SI (Selectivity Index, CC50/EC50)” value is reported as < 1.
